Laboratory results published in patent US20060159617A1, “Small technetium-99m and rhenium labeled agents and methods for imaging tissues, organs and tumors” (priority 2002, published 2006).

What was measured:
α1 receptor = experiment: Alpha-1 receptor competition binding assay with [3H]-Prazosin; details: apparent Ki, rat frontal cortex
Protocol: The in vitro α1 receptor binding affinities of rhenium coordinated complexes were determined in a competition assay using rat frontal cortex and high-affinity α1 ligand [^3H]-Prazosin (80 Ci/mmol, NEN Life Science Inc., Cambridge, Mass.). See, Eur. J. Nucl. Med. 2002, 29, 82-87.
(§1) The frontal cortex of rat brain was prepared as described above and store at −70° C. until used in the binding assays. Ten concentrations of the nonradioactive rhenium complexes ranging from 1×10^−10 to 1×10^−3 and protein samples (0.15 mg of membrane protein) were incubated with 1.5 nM [^3H]-Prazosin in a total volume of 0.25 mL of Tris-HCl (50 mM, pH 7.4, 10 mM MgSO4). Incubations were carried out for 60 min at 25° C. All assays were terminated by dilution with 5 mL of ice-cold Tris-HCl (10 mM), pH 7.4, and solution were filtered through glass-fiber filters (Whatman GF/F; presoaked in 0.5% polyethyleneimine for 30 min at 25° C.). Filters were then washed three times with 5 mL of ice-cold Tris-HCl (50 mM, pH 7.4), and counted in Hionic-Fluor cocktail (Packard, Groningen, the Netherlands). The corresponding IC50 values were determined with Origin 6.0 software (OriginLab, Northampton, Mass.) and were used for the calculation of the apparent Ki values with the Cheng-Prusoff equation. See, Biocheni. Pharmacol. 1973, 22, 3099-3108.

5HT1A receptor = molecular target: T1, 5HT1A receptor (Rattus norvegicus, UniProt P19327); experiment: 5HT1A receptor competition binding assay with [3H]-8-OH-DPAT; details: apparent Ki, rat hippocampus
T1 construct: The brains were rapidly removed, and hippocampus, frontal cortex, hypothalamus, and striatum were hand-dissected on ice; from tissue; host or cells: male Sprague-Dawley rat hippocampus membranes
T1 sequence (P19327 1-422): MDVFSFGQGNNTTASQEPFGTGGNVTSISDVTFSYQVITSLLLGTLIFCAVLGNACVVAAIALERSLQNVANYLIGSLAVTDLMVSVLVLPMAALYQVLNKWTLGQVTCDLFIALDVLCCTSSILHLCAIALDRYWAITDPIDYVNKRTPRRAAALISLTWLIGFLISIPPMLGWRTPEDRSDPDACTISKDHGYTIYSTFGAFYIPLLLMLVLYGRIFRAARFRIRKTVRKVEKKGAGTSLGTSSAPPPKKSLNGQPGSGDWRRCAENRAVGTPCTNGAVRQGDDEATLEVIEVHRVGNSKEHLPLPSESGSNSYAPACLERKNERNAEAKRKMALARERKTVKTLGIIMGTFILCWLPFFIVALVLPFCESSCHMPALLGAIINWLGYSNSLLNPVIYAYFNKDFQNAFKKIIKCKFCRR
Protocol: The in vitro 5HT1A binding affinities of rhenium coordinated complexes were determined in a competition assay using rat hippocampus and high-affinity 5HT1A-ligand [^3H]-8-OH-DPAT (135 Ci/mmol, NEN Life Science Inc., Cambridge, Mass.). See, Brain Res. 1995, 673, 217-225.
Male Sprague-Dawley rats (weighing 150-170 g) were sacrificed using anesthesia agent isoflurane. The brains were rapidly removed, and hippocampus, frontal cortex, hypothalamus, and striatum were hand-dissected on ice and stored at −70° C. Tissue was thawed at room temperature and homogenized using a Brinkmann Polytron tissue disrupter in 50 volumes (wt/vol) of ice-cold 50 mM Tris-HCl buffer (pH 7.4). The suspension was centrifuged twice at 27,000 g for 20 min at 4° C. The membrane pellets were resuspended in 50 volumes of (wt/vol) Tris-HCl buffer and incubated at 37° C. for 20 min in a water bath, before a final centrifugation step (27,000 g; 20 min; 4° C.). The final tissue pellets were stored at −70° C. until assayed.
as §1, with “Twelve” for “The frontal cortex of rat brain was prepared as described above and store at −70° C. until used in the binding assays. Ten”, “1×10^−11” for “1×10^−10”, “1×10^−4” for “1×10^−3”, “[^3H]-8-OH-DPAT” for “[^3H]-Prazosin”, “Biochem.” for “Biocheni.”

σ2 receptor = molecular target: T2, σ2 receptor (Rattus norvegicus, UniProt Q5U3Y7); experiment: σ2 receptor competition binding assay with [3H]-DTG, σ1 masked; details: apparent Ki, rat liver membranes
T2 construct: Rat liver membranes were prepared from male Sprague-Dawley rat livers as previously described; from tissue; host or cells: male Sprague-Dawley rat liver membranes
T2 sequence (Q5U3Y7 1-176): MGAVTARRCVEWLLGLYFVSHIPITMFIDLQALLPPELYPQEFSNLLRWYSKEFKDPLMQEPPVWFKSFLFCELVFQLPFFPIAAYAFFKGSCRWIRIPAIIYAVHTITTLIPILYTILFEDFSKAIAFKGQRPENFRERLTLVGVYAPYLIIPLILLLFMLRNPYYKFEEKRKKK
Protocol: Rat liver membranes were prepared from male Sprague-Dawley rat livers as previously described (Eur. J. Pharmacol.—Mol. Pharmacol. Sect. 1994, 268, 9-18). The in vitro σ2 receptor binding affinities of rhenium coordinated complexes were determined in a competition assay using rat livers and [^3H]-DTG (31 Ci/mmol, NEN Life Science Inc., Cambridge, Mass.) as radioligand in the presence of 10 μM 1-pyrrolidinylethyl 3,4-dichlorophenylacetate oxalate (ACT915 oxalate) to mask σ1 receptors (Bioorg. & Med. Chem. Lett. 2000, 10, 17-18). Competition assays were performed with twelve concentrations of the nonradioactive rhenium complexes ranging from 1×10^−10 to 1×10^−3 and protein samples (0.15 mg of membrane protein) in a total volume of 0.25 mL of Tris-HCl (50 mM, pH 8.0) for 120 min at 25° C. All other manipulations and data analysis were performed as described vide supra for the σ1-receptor assays.

Structure (SMILES)	Ki (α1 receptor) [nM]	Ki (5HT1A receptor) [nM]	Ki (σ2 receptor) [nM]
O=C1CN(CCCN2CCC(Cc3ccccc3)CC2)CC[S][Re]2(=[O])[S]CC[N]12 (stereo not drawn) [Re-15]	322 ± 61	589 ± 70	136 ± 22
COc1ccccc1C1CCN(CCCN2CC[S][Re]3(=[O])[S]CC[N]3C(=O)C2)CC1 (stereo not drawn) [Re-16]	48 ± 9	4.5 ± 0.4	336 ± 70
